Experimental data published in patent publication US10077261B2, “Imidazolin-5-one derivative useful as FASN inhibitors for the treatment of cancer” (Janssen Pharmaceutica NV, priority 2012, dated 2018).

How the values were obtained:
[1] = biological target: T1, hFASN enzyme (full length) (Homo sapiens, UniProt P49327); experiment: Fatty Acid Synthase (FASN) inhibition scintillation proximity assay; format: biochemical; conditions: for inhibition at 10 µM: read-out: Human FASN % inhibition @ 10 μM, 10 μM test compound; for IC50: read-out: Human FASN pIC50 (converted)
T1 construct: 10 μL hFASN enzyme (full length, 300 ng, purified in house); made in house
T1 sequence (P49327 whole entry): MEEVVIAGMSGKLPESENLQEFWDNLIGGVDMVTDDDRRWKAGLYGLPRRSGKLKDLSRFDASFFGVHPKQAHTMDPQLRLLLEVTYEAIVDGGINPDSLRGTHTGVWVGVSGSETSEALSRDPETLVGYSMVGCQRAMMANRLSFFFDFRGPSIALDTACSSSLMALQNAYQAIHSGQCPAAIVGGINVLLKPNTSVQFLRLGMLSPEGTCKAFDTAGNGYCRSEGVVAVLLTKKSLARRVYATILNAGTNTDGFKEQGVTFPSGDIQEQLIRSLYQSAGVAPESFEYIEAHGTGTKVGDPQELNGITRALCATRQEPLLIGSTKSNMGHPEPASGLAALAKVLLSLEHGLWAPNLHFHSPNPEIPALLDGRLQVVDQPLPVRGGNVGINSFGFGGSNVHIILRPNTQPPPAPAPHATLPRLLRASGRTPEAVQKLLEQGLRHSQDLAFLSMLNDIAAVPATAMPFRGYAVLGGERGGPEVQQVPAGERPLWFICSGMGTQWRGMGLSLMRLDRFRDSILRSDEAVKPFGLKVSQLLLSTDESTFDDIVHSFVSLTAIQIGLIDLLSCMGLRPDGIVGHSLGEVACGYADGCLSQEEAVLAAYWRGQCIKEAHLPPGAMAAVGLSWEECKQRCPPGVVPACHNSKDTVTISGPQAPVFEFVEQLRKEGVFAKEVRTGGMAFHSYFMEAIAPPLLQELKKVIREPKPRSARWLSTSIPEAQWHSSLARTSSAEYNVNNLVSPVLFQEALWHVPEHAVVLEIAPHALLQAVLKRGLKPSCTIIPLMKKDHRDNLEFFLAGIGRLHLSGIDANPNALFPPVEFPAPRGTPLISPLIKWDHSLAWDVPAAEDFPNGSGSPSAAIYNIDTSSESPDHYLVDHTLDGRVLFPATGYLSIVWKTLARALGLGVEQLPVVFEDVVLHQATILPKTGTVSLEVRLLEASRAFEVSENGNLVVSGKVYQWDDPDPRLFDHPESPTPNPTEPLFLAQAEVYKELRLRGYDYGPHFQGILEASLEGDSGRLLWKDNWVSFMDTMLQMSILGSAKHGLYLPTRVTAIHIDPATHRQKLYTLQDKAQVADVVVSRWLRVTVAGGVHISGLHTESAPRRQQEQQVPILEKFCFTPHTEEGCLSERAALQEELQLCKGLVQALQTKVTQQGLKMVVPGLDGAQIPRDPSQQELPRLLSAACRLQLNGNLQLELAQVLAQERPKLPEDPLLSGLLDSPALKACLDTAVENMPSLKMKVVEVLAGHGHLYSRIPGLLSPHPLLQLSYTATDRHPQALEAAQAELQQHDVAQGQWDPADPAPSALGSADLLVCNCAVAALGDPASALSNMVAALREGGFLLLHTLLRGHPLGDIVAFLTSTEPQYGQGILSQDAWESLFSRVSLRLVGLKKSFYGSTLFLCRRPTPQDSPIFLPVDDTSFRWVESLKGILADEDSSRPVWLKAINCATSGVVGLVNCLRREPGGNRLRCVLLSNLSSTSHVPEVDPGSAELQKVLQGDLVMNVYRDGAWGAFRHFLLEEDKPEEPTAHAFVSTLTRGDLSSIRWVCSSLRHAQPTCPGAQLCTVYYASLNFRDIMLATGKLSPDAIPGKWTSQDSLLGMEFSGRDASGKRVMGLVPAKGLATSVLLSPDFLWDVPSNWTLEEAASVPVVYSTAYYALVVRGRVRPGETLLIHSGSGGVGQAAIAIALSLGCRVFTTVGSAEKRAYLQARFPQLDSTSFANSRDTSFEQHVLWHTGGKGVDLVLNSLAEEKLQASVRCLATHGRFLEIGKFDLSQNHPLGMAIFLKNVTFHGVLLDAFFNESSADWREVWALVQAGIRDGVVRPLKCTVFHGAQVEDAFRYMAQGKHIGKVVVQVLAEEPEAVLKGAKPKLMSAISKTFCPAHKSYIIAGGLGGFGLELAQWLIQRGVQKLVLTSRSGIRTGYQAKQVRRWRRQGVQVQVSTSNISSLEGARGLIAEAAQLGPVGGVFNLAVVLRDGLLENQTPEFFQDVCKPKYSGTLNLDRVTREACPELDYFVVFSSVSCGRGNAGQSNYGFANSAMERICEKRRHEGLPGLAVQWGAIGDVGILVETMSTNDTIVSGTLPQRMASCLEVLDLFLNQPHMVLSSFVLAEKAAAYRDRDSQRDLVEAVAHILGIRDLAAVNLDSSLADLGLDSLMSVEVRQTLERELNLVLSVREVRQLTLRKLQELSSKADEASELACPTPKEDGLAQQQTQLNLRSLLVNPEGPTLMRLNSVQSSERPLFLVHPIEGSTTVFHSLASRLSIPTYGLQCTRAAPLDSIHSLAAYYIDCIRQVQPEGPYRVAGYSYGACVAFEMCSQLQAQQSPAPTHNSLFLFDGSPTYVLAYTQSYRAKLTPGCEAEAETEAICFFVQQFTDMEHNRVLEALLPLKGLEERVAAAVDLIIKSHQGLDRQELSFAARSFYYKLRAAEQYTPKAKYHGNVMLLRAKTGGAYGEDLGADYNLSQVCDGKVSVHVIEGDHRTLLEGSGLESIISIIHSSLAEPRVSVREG
Outline: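 Compounds at 0.01–30 μM were mixed with 300 ng purified full-length enzyme in 100 mM KH2PO4 pH 7.5, 1 mM DTT. Substrates ³H-acetyl-CoA and malonyl-CoA were then converted, and bead addition stopped the reaction. Signal was normalised to low and high plate controls and fitted by 4-parameter nonlinear regression.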

A2780 ovarian cells [2] = experiment: A2780 ovarian cell proliferation assay in lipid reduced medium, with palmitate (MTT); format: cell-based; conditions: Homo sapiens, A2780, 96 h; read-out: pIC50 A2780 Ovarian Cell, With Palmitate (converted)
Outline: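 Seeded cells were switched next day to lipid-reduced serum, exposed to compound and 25 μM palmitate complexed with fatty-acid-free BSA, and incubated 96 h. Proliferation was then determined by MTT absorbance at 544 nm, with a best-fit curve of signal against concentration.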

A2780 ovarian cells [3] = experiment: A2780 ovarian cell proliferation assay in lipid reduced medium, without palmitate (MTT); format: cell-based; conditions: Homo sapiens, A2780, 96 h; read-out: pIC50 A2780 Ovarian Cell, Without Palmitate (converted)
[4] = tested on: PC-3M-Luc-C6 prostate cells; experiment: In vitro PC-3M-Luc-C6 prostate cell proliferation assay in lipid reduced medium; format: cell-based; conditions: 96 h, read-out: pIC50 PC-3M-Luc-C6 prostate cell (converted)
[5] = biological target: Fatty Acid Synthase Keto-reductase Domain (FASN KR) (Homo sapiens, UniProt P49327); experiment: Fatty Acid Synthase keto-reductase domain (FASN KR) inhibition, NADPH oxidation at 340 nm
Fatty Acid Synthase Keto-reductase Domain (FASN KR), sequence (P49327 whole entry, the tested form may be a part): as the sequence (P49327 whole entry) above
Description: After 20 minutes incubation at room temperature the plate was measured again (T2).
The decrease in absorbance was calculated as (Absorbance before incubation T1)−(Absorbance following incubation T2).
A plot of Controlmin versus test compound concentration was fitted to a 4-parameter logistic curve using a non-linear least squares regression method.

[6] = tested on: LNCaP-Vancouver prostate cells; experiment: In vitro LNCaP Vancouver prostate cell proliferation assay in lipid reduced medium; format: cell-based; conditions: read-out: pIC50 LNCaP_Vancouver prostate cell (converted)

SMILES	inhibition at 10 µM [1] [%]	IC50 [1] [µM]	IC50 (A2780 ovarian cells [2]) [µM]	IC50 (A2780 ovarian cells [3]) [µM]	IC50 [4] [µM]	IC50 [5] [µM]	IC50 [6] [µM]
COC(=O)N1CC2(C1)N=C(c1ccc(-c3ccc4cccnc4c3)cc1)N(C[C@@H]1CCN(C(=O)C(C)O)C1)C2=O (stereo partly drawn) [compound 729, Methyl 7-{[(3R)-1-(2-hydroxypropanoyl)pyrrolidin-3-yl]methyl}-8-oxo-6-(4-quinolin-7-ylphenyl)-2,5,7-triazaspiro[3.4]oct-5-ene-2-carboxylate]	95	0.309	> 10	1.29	1.45	0.813	8.71
C=CC(=O)N1CCC2(CC1)N=C(c1ccc(-c3ccc4ccoc4c3)cc1)N(C[C@@H]1CCN(C(=O)C3CC3)C1)C2=O [compound 741, 8-Acryloyl-2-[4-(1-benzofuran-6-yl)phenyl]-3-{[(3R)-1-(cyclopropylcarbonyl)pyrrolidin-3-yl]methyl}-1,3,8-triazaspiro[4.5]dec-1-en-4-one]	102	0.158	> 10	~2.51	~1.62	0.537	2.75
CS(=O)(=O)N1CCC2(CC1)N=C(c1ccc(-c3ccc4occc4c3)cc1)N(C[C@@H]1CCN(C(=O)C3CC3)C1)C2=O [compound 746, 2-[4-(1-Benzofuran-5-yl)phenyl]-3-{[(3R)-1-(cyclopropylcarbonyl)pyrrolidin-3-yl]methyl}-8-(methylsulfonyl)-1,3,8-triazaspiro[4.5]dec-1-en-4-one]	94	0.275	> 10	~1.86	~1.66	1.07	~3.89
COCCN1CCC2(CC1)N=C(c1ccc(-c3ccc4[nH]ccc4c3)cc1)N(C[C@@H]1CCN(C(=O)C3CC3)C1)C2=O [compound 747, 3-{[(3R)-1-(Cyclopropylcarbonyl)pyrrolidin-3-yl]methyl}-2-[4-(1H-indol-5-yl)phenyl]-8-(2-methoxyethyl)-1,3,8-triazaspiro[4.5]dec-1-en-4-one]	96	0.0851	> 10	~0.0741	0.0575	0.129	0.631
COCCN1CCC2(CC1)N=C(c1ccc(-c3ccc4[nH]ncc4c3)cc1)N(C[C@@H]1CCN(C(=O)C3CC3)C1)C2=O [compound 748, 3-{[(3R)-1-(Cyclopropylcarbonyl)pyrrolidin-3-yl]methyl}-2-[4-(1H-indazxol-5-yl)phenyl]-8-(2-methoxyethyl)-1,3,8-trisazaspiro[4.5]dec-1-en-4-one]	99	0.355	> 10	~0.224	0.575	0.525	3.02
Cn1ncc2cc(-c3ccc(C4=NC5(CCN(C(=O)C(F)(F)F)CC5)C(=O)N4C[C@@H]4CCN(C(=O)C5CC5)C4)cc3)ccc21 [compound 752, 3-{[(3R)-1-(Cyclopropylcarbonyl)pyrrolidin-3-yl]methyl}-2-[4-(1-methyl-1H-indazol-5-yl)phenyl]-8-(trifluoroacetyl)-1,3,8-triazaspiro[4.5]dec-1-en-4-one]	91	0.776	> 10	1.62	1.91	1.05	3.98
N#Cc1ccc2cc(-c3ccc(C4=NC5(CC5)C(=O)N4CC4CN(C(=O)C5(O)CC5)C4)c(F)c3)ccc2c1 [compound 872, 6-(3-fluoro-4-(6-((1-(1-hydroxycyclopropanecarbonyl)azetidin-3-yl)methyl)-7-oxo-4,6-diazaspiro[2.4]hept-4-en-5-yl)phenyl)-2-naphthonitrile]	99	0.0234	~7.94	0.00269	0.00479	0.0427	0.024
O=C(C1CC1)N1CC[C@@H](CN2C(=O)C3(CCCC3)N=C2c2ccc(-c3ccc4cccnc4c3)cc2F)C1 [compound 875, (R)-3-((1-(cyclopropanecarbonyl)pyrrolidin-3-yl)methyl)-2-(2-fluoro-4-(quinolin-7-yl)phenyl)-1,3-diazaspiro[4.4]non-1-en-4-one]	104	0.0251	> 10	0.0135	0.0105	0.0288	0.0871
O=C(C1CC1)N1CC[C@@H](CN2C(=O)C3(CCCC3)N=C2c2ccc(-c3ccc4sccc4c3)cc2F)C1 [compound 876]	105	0.0309	> 10	0.229	0.12	0.0363	0.617
O=C(C1CC1)N1CC[C@@H](CN2C(=O)C3(CCCC3)N=C2c2ccc(-c3ccc4cn[nH]c4c3)cc2F)C1 [compound 879, (R)-3-((1-(cyclopropanecarbonyl)pyrrolidin-3-yl)methyl)-2-(2-fluoro-4-(1H-indazol-6-yl)phenyl)-1,3-diazaspiro[4.4]non-1-en-4-one]	104	0.0417	> 10	0.0251	0.0309	0.055	0.38

More lines, in order of falling IC50 [5], values ahead:

inhibition at 10 µM [1] [%]	IC50 [1] [µM]	IC50 (A2780 ovarian cells [2]) [µM]	IC50 (A2780 ovarian cells [3]) [µM]	IC50 [4] [µM]	IC50 [5] [µM]	IC50 [6] [µM]	SMILES
87	0.676	> 10	1.62	1.7	2	5.01	O=C(N1CCCC1)N1CC(CN2C(=O)C3(CCOC3)N=C2c2ccc(-c3ccc4cccnc4c3)cc2)C1 (centres unmarked) [compound 717, 3-{[1-(Pyrrolidin-1-ylcarbonyl)azetidin-3-yl]methyl}-2-(4-quinolin-7-ylphenyl)-7-oxa-1,3-diazaspiro[4.4]non-1-en-4-one]
89	0.363	> 10	0.933	0.794	1.51	5.25	O=C(C1CC1)N1CC(CN2C(=O)C3(CCOC3)N=C2c2ccc(-c3ccc4cccnc4c3)cc2)C1 (centres unmarked) [compound 714, 3-{[1-(Cycloprppylcarbonyl)azetidin-3-yl]methyl}-2-(4-quinolin-7-ylphenyl)-7-oxa-1,3-diazaspiro[4.4]non-1-en-4-one]
94	0.309	> 10	0.676	0.589	1.15	3.16	COCCN1CCC2(CC1)N=C(c1ccc(-c3ccc4c(cnn4C)c3)cc1)N(C[C@@H]1CCN(C(=O)C3CC3)C1)C2=O [compound 750, 3-{[(3R)-1-(Cyclopropylcarbonyl)pyrrolidin-3-yl]methyl}-8-(2-methoxyethyl)-2-[4-(1-methyl-1H-indazol-5-yl)phenyl]-1,3,8-triazaspiro[4.5]dec-1-en-4-one]
96	0.363	> 10	2.19	2.09	0.832	8.91	O=C(C1CC1)N1CC(CN2C(=O)C3(CCN(C(=O)C(F)(F)F)CC3)N=C2c2ccc(-c3ccc4[nH]ccc4c3)cc2)C1 [compound 765, 3-{[1-(Cyclopropylcarbonyl)azetidin-3-yl]methyl}-2-[4-(1H-indol-5-yl)phenyl]-8-(trifluoroacetyl)-1,3,8-triazaspiro[4.5]dec-1-en-4-one]
95	0.316	> 10	~0.977	0.813	0.759	3.89	CS(=O)(=O)N1CCC2(CC1)N=C(c1ccc(-c3ccc4[nH]ccc4c3)cc1)N(CC1CN(C(=O)C3CC3)C1)C2=O [compound 762, 3-{[1-(Cyclopropylcarbonyl)azetidin-3-yl]methyl}-2-[4-(1H-indol-5-yl)phenyl]-8-(methylsulfonyl)-1,3,8-triazaspiro[4.5]dec-1-en-4-one]
99	0.191	~6.03	~2.51	~1.74	0.355	~4.47	Cc1sc2ccc(-c3ccc(C4=NC5(CCN(CCO)CC5)C(=O)N4C[C@@H]4CCN(C(=O)C5CC5)C4)cc3)cc2c1C [compound 742, 3-{[(3R)-1-(Cyclopropylcarbonyl)pyrrolidin-3-yl]methyl}-2-[4-(2,3-dimethyl-1-benzothiophen-5-yl)phenyl]-8-(2-hydroxyethyl)-1,3,8-triazaspiro[4.5]dec-1-en-4-one]
103	0.0339	> 10	0.0214	0.0457	0.0741	~0.407	O=C(C1CC1)N1CC[C@@H](CN2C(=O)C3(CCCC3)N=C2c2ccc(-c3ccc4[nH]cnc4c3)cc2F)C1 [compound 877, (R)-2-(4-(1H-benzo[d]imidazol-5-yl)-21-fluorophenyl)-3-((1-(cyclopropanecarbonyl)pyrrolidin-3-yl)methyl)-1,3-diazaspiro[4.4]non-1-en-4-one]
